{
  "source": "paper PMC5116089",
  "about": "“Sulfheme formation during homocysteine S-oxygenation by catalase in cancers and neurodegenerative diseases” (Nature Communications, 2016)",
  "assay_in_all_cases": "H2O2 consumption in cell lysates as a function of NaSH concentration",
  "key": {"HT-29 Glc−/+ cells": {"test_system": "HT-29 Glc−/+ cells", "type": "biochemical, human", "settings": "HT-29 Glc−/+ cell lysate (control line); read-out: relative IC50 (rate of H2O2 consumption)", "experimental": "(§1) CAT activity was measured on an Uvikon 941 spectrophotometer equipped with a temperature controlled water bath (±1 °C) by following the disappearance of H2O2 at 240 nm over 30–120 s at 25 °C. Catalase activity was calculated based on the rate of decomposition of hydrogen peroxide, which is proportional to the reduction of the absorbance at 240 nm. Experiments were carried out in a 3 ml quartz cuvette containing 11.7 mM H2O2 in 50 mM KPi, pH 7.4±1 mM DTPA and the reaction was initiated by adding 0.3–0.6 pmoles of CAT. The effect of biological thiols on the activity of CAT under physiological conditions was determined from a solution of CAT (30–60 nM) preincubated at 25 °C for at least 120 min as a function thiol concentration (0–40 mM for HCys and Cys, 0–100 mM for GSH) in 50 mM KPi, pH 7.4, 1 mM DTPA. Control experiments (biological thiols alone) were also performed in parallel. In each case, 10 μl of the reaction mixture (biological thiols±CAT) was added to the cuvette containing the H2O2 solution to initiate the reaction. Similarly, the effect of biological thiols on the activity of CAT under pathological conditions was determined from a solution of CAT (30–60 nM) containing a 2.124±0.386 molar excess of iron that was preincubated with various concentrations of thiols (0–1 mM) for at least 120 min at 25 °C in 50 mM KP at pH 7.4. The relative half inhibitory concentration (IC50) values were obtained by plotting the relative activity of CAT (A, in per cent) as a function of the concentration of thiol-compounds (RSH) and by fitting the data with the following four parameter logistic equation: A=Amin+(Amax−Amin)/(1+([RSH]/IC50)^n), where Amax is the maximal activity of CAT (constrained at 100%), Amin is the minimum activity achieved at saturating concentration of RSH and n is the Hillslope that characterizes the slope of the curve at its midpoint. The inactivation rate (kinact, min^−1) was extracted from the time course of the inactivation of CAT bioactivity using a fixed concentration of HCys. Accordingly, a solution of CAT (3.5–5 μM) was incubated with 2 mM L-HCys in 50 mM KPi, pH 7.4, 1 mM DTPA. Aliquots (10 μl) were taken at intervals (0–480 min), diluted 1:50 in 50 mM KPi, pH 7.4, 1 mM DTPA and assayed for CAT activity as described above. […] The effect of NaSH on the consumption of H2O2 in cell lysates was determined from a solution of cell lysates (0.5–3 mg ml^−1) incubated on ice with various concentrations of NaSH (0–200 μM). […]"}, "MDST8 cells": {"test_system": "MDST8 cells", "type": "biochemical, human", "settings": "MDST8 cell lysate; read-out: relative IC50 (rate of H2O2 consumption)", "experimental": "as §1"}, "HCT-116 cells": {"test_system": "HCT-116 cells", "type": "biochemical, human", "settings": "HCT-116 cell lysate; read-out: relative IC50 (rate of H2O2 consumption)", "experimental": "as §1"}, "HCT-15 cells": {"test_system": "HCT-15 cells", "type": "biochemical, human", "settings": "HCT-15 cell lysate; read-out: relative IC50 (rate of H2O2 consumption)", "experimental": "as §1"}, "[1]": {"test_system": "crypt and surface epithelial cells", "type": "biochemical, mice", "settings": "read-out: relative IC50 (rate of H2O2 consumption)", "experimental": "(§2) CAT activity was measured on an Uvikon 941 spectrophotometer equipped with a temperature controlled water bath (±1 °C) by following the disappearance of H2O2 at 240 nm over 30–120 s at 25 °C. Catalase activity was calculated based on the rate of decomposition of hydrogen peroxide, which is proportional to the reduction of the absorbance at 240 nm. Experiments were carried out in a 3 ml quartz cuvette containing 11.7 mM H2O2 in 50 mM KPi, pH 7.4±1 mM DTPA and the reaction was initiated by adding 0.3–0.6 pmoles of CAT. The effect of biological thiols on the activity of CAT under physiological conditions was determined from a solution of CAT (30–60 nM) preincubated at 25 °C for at least 120 min as a function thiol concentration (0–40 mM for HCys and Cys, 0–100 mM for GSH) in 50 mM KPi, pH 7.4, 1 mM DTPA. Control experiments (biological thiols alone) were also performed in parallel. […] Similarly, the effect of biological thiols on the activity of CAT under pathological conditions was determined from a solution of CAT (30–60 nM) containing a 2.124±0.386 molar excess of iron that was preincubated with various concentrations of thiols (0–1 mM) for at least 120 min at 25 °C in 50 mM KP at pH 7.4. […] The effect of NaSH on the consumption of H2O2 in cell lysates was determined from a solution of cell lysates (0.5–3 mg ml^−1) incubated on ice with various concentrations of NaSH (0–200 μM). […]"}, "Hek 293T cells": {"test_system": "Hek 293T cells", "type": "biochemical", "settings": "read-out: relative IC50 (rate of H2O2 consumption)", "experimental": "as §2"}},
  "note": "Where two headings read alike, the source gives them in different places.",
  "data": [
    {"smiles": "[Na+].[SH-]", "note": "[NaSH]", "values": [
      {"measurement": "IC50", "setting": "HT-29 Glc−/+ cells", "result": "15 ± 5.3", "unit": "µM"},
      {"measurement": "IC50", "setting": "MDST8 cells", "result": "20.4 ± 4", "unit": "µM"},
      {"measurement": "IC50", "setting": "HCT-116 cells", "result": "1.8 ± 1.5", "unit": "µM"},
      {"measurement": "IC50", "setting": "HCT-15 cells", "result": "5.8 ± 1.8", "unit": "µM"},
      {"measurement": "IC50", "setting": "[1]; cells isolated from DSS-treated mice", "result": "21.6 ± 6.2", "unit": "µM"},
      {"measurement": "IC50", "setting": "[1]; cells isolated from untreated mice", "result": "25.2 ± 6.7", "unit": "µM"},
      {"measurement": "IC50", "setting": "Hek 293T cells; Hek 293T cells transfected with Htt", "result": "4 ± 1.5", "unit": "µM"},
      {"measurement": "IC50", "setting": "Hek 293T cells; Hek 293T cells transfected with pcDNA", "result": "6.5 ± 3.6", "unit": "µM"}
    ]}
  ]
}
